Test results reported in patent publication US8236523B2, “Camp reporters and high throughput assays” (The Johns Hopkins University, priority 2004, dated 2012).

Columns and labels:
Type in all cases: cell-based
[1] = system: cAMP; assay: High throughput 96-well plate assay using ICUE2 stable HEK293 cells; details: 1 μM Iso, 50 μM Fsk, 10 μM H89, 100 μM IBMX
Experimental: HEK293 cells which stably express ICUE2 (“ICUE2 stable HEK293 cells”) were grown to confluency in 10 cm dishes in DMEM, 10% FBS, 1% penicillin/streptomycin, and 250 μg/ml G418. HEK-293 cells were transfected with cDNA encoding ICUE2 using calcium phosphate at 40% confluency and allowed to grow for 40 hours. Cells were removed from the dish using 0.05% trypsin, spun down, and replaced with fresh media. ICUE2 stable HEK293 cells were counted on a hemocytometer using trypan blue stain. One hundred fifty thousand (150,000) cells were plated per well on a 96-well clear bottom assay plate in a total of 0.2 ml of media per […] and allowed to double once. Media was removed, cells were washed with Hanks buffered salt solution (HBSS) and then covered with 0.05 ml of HBSS per well. In a separate sterile plate, appropriate drugs were added to each well containing HBSS for a total volume of 0.05 ml. […] A baseline was established in three cycles, each consisting of a full plate reading of yellow intensity, followed by a reading of cyan intensity. Cells were then treated with isoproterenol (ISO; […] Readings were taken in six or twenty additional cycles. […] Baseline FRET ratios were calculated as the average ratio of yellow/cyan for each well before the addition of drug. FRET change was calculated as the percent increase of FRET ratio over baseline for each well during a given cycle. The FRET changes of all wells having undergone the same drug treatment were then averaged within each cycle, and that cycle was correlated with time.

[2] = system: cAMP; assay: Dual-emission ratio (FRET) imaging of Epac-based cAMP reporters (ICUE1 and targeted fusions) in HEK-293 cells; details: HEK293 cells expressing ICUE1; 10 μM ISO, 50 μM FSK, 10 μM PGE1, 300 μM 8-pCPT-2′-O-Me-cAMP; average ± S.E.M
Experimental: Cell Culture. […] Cells were then transfected with FuGENE-6 transfection reagent (Roche) or calcium phosphate and allowed to grow for 12-24 hours before imaging.
Imaging. Cells were washed twice with Hanks' balanced salt solution buffer after 12- to 24-h incubation at 37° C. culture medium. Cells were maintained in buffer in the dark at room temperature with addition of isoproterenol (Aldrich), forskolin (Calbiochem), Prostaglandin E1 (PGE1) (Sigma), and 8-(4-chloro-phenylthio)-2′-O-methyl adenosine 3′,5′-monophosphate (8-pCPT-2′-O-Me-cAMP) (Axxora Biolog) as indicated. Cells were also treated with P-(4,5-dimethoxy-2-nitrobenzyl) adenosine 3′,5′-monophosphate (DMNB-cAMP) (Molecular Probe).
Cells were imaged on a Zeiss Axiovert 200M microscope with a cooled charge-coupled device camera MicroMAX BFT512 (Roper Scientific) controlled by METAFLUOR 6.2 software (Universal Imaging). Dual-emission ratio imaging used a 420DF20 excitation filter, a 450DRLP dichroic mirror and two emission filters (475DF40 for ECFP, 535DF25 for citrine) alternated by a filter changer Lambda 10-2 (Sutter Instruments). Exposure time was 100-500 ms and images were taken every 8-30 s. Fluorescent images were background-corrected by subtracting autofluorescence intensities of untransfected cells (or background with no cells) from the emission intensities of fluorescent cells expressing reporters. The ratios of cyan to yellow emissions were then calculated at different time points and normalized by dividing all ratios by the emission ratio just prior to stimulation therefore setting the basal emission ratio to 1.

[3] = system: cAMP; assay: 96-well live cell plate reading of HEK293 cells expressing ICUE3; details: HEK293 cells expressing ICUE3, 1 μM ISO, 50 μM FSK
Experimental: Plate reading used a 420DF20 excitation filter and two emission filters (470DF40 for cyan and 535DF25 for yellow). A baseline was established in three cycles, each consisting of a full plate reading of yellow intensity, followed by a reading of cyan intensity. Cells were then treated with isoproterenol (ISO; Aldrich), forskolin (Calbiochem), H89, propranolol, and 3-isobutyl-1-methylxanthine (IBMX) as indicated. Readings were taken in six or twenty additional cycles. Each cycle lasted 60 to 145 sec. Baseline FRET ratios were calculated as the average ratio of yellow/cyan for each well before the addition of drug. FRET change was calculated as the percent increase of FRET ratio over baseline for each well during a given cycle. The FRET changes of all wells having undergone the same drug treatment were then averaged within each cycle, and that cycle was correlated with time.
Live cell plate reading. HEK293 cells were transfected with cDNA encoding ICUE reporters using calcium phosphate at 40% confluency and allowed to grow for 40 hours. Cells were then trypsinized and plated in a Costar 3603 96-well assay plate (Coming) at a density of 150,000 cells per well. After incubation for another 24 hours, cells were washed once with HBSS and left in 150 μl HBSS at 20-25° C. Fluorescence reading was taken on a FLUOstar OPTIMA fluorescence microplate reader (BMG Labtechnologies Inc.) using a 420DF20 excitation filter and two emission filters (470DF40 for cyan and […] for yellow). A baseline was established in three cycles, each consisting of a full plate reading of yellow intensity, followed by a reading of cyan intensity. Each cycle lasted between 64 and 145 seconds. Readings were taken in additional cycles. FRET change was calculated as the percent increase of emission ratios (cyan-to-yellow) over baseline for each well during a given cycle. To assess the efficacy of the assay, several statistical parameters were calculated, including Z factor, coefficient of variation, and signal-to-noise ratio (Zhang et al., J. Biomol. Screen. 4, 67-73, 1999).

Q: `C=C[C@@]1(C)CC(=O)[C@]2(O)[C@@]3(C)[C@@H](O)CCC(C)(C)[C@@H]3[C@H](O)[C@H](OC(C)=O)[C@@]2(C)O1` [forskolin] was tested. Which “Average percent FRET response ± standard deviation, cycle 1” value ([1]; cycle 1 (1 cycle = 60 seconds)) did it give?
A: 0.36% ± 7.51%

Q: What about the “Average percent FRET response ± standard deviation, cycle 2” value ([1]; cycle 2 (1 cycle = 60 seconds)) of the same compound?
A: 2.67% ± 4.53%

Q: What about the “Average percent FRET response ± standard deviation, cycle 3” value ([1]; cycle 3 (1 cycle = 60 seconds)) of the same compound?
A: 8.71% ± 6.66%

Q: What about the “Average percent FRET response ± standard deviation, cycle 4” value ([1]; cycle 4 (1 cycle = 60 seconds)) of the same compound?
A: 15.29% ± 3.37%

Q: And the “Average percent FRET response ± standard deviation, cycle 5” value ([1]; cycle 5 (1 cycle = 60 seconds))?
A: 15.23% ± 6.55%

Q: What about the “Average percent FRET response ± standard deviation, cycle 6” value ([1]; cycle 6 (1 cycle = 60 seconds)) of the same compound?
A: 18.73% ± 3.97%

Q: And the “Average percent FRET response ± standard deviation, cycle 7” value ([1]; cycle 7 (1 cycle = 60 seconds))?
A: 20.79% ± 4.6%

Q: And the “Average percent FRET response ± standard deviation, cycle 8” value ([1]; cycle 8 (1 cycle = 60 seconds))?
A: 22.82% ± 4.58%

Q: And the “Average percent FRET response ± standard deviation, cycle 9” value ([1]; cycle 9 (1 cycle = 60 seconds))?
A: 24.98% ± 3.69%

Q: What about the “Average percent FRET response ± standard deviation, cycle 10” value ([1]; cycle 10 (1 cycle = 60 seconds)) of the same compound?
A: 23.4% ± 4.53%

Q: What about the “Average percent FRET response ± standard deviation, cycle 11” value ([1]; cycle 11 (1 cycle = 60 seconds)) of the same compound?
A: 24.46% ± 3.51%

Q: And the “Average percent FRET response ± standard deviation, cycle 12” value ([1]; cycle 12 (1 cycle = 60 seconds))?
A: 25.44% ± 2.14%

Q: What about the “Average percent FRET response ± standard deviation, cycle 13” value ([1]; cycle 13 (1 cycle = 60 seconds)) of the same compound?
A: 24.97% ± 3.91%

Q: What about the “Average percent FRET response ± standard deviation, cycle 14” value ([1]; cycle 14 (1 cycle = 60 seconds)) of the same compound?
A: 25.6% ± 4.31%

Q: And the “Average percent FRET response ± standard deviation, cycle 15” value ([1]; cycle 15 (1 cycle = 60 seconds))?
A: 27.0% ± 1.87%

Q: And the “Average percent FRET response ± standard deviation, cycle 16” value ([1]; cycle 16 (1 cycle = 60 seconds))?
A: 25.84% ± 3.57%

Q: What about the “Average percent FRET response ± standard deviation, cycle 17” value ([1]; cycle 17 (1 cycle = 60 seconds)) of the same compound?
A: 26.32% ± 1.66%

Q: And the “Average percent FRET response ± standard deviation, cycle 18” value ([1]; cycle 18 (1 cycle = 60 seconds))?
A: 25.94% ± 3.05%

Q: What about the “Average percent FRET response ± standard deviation, cycle 19” value ([1]; cycle 19 (1 cycle = 60 seconds)) of the same compound?
A: 25.98% ± 2.13%

Q: What about the “Average percent FRET response ± standard deviation, cycle 20” value ([1]; cycle 20 (1 cycle = 60 seconds)) of the same compound?
A: 25.51% ± 1.67%

Q: And the “increase in the ratio of cyan to yellow emissions (FRET response)” value [2]?
A: 19.6%±1.0

Q: What about the “Average percent FRET response ± standard deviation, 0 sec.” value ([3]; 0 sec., 10 μM PRO, 100 μM IBMX, 10 μM H89) of the same compound?
A: 9.05% ± 3.18%

Q: And the “Average percent FRET response ± standard deviation, 145 sec.” value ([3]; 145 sec., 10 μM PRO, 100 μM IBMX, 10 μM H89)?
A: 13.0% ± 3.17%

Q: What about the “Average percent FRET response ± standard deviation, 290 sec.” value ([3]; 290 sec., 10 μM PRO, 100 μM IBMX, 10 μM H89) of the same compound?
A: 14.8% ± 3.35%

Q: What about the “Average percent FRET response ± standard deviation, 435 sec.” value ([3]; 435 sec., 10 μM PRO, 100 μM IBMX, 10 μM H89) of the same compound?
A: 16.7% ± 3.33%

Q: And the “Average percent FRET response ± standard deviation, 580 sec.” value ([3]; 580 sec., 10 μM PRO, 100 μM IBMX, 10 μM H89)?
A: 16.8% ± 3.27%

Q: What about the “Average percent FRET response ± standard deviation, 725 sec.” value ([3]; 725 sec., 10 μM PRO, 100 μM IBMX, 10 μM H89) of the same compound?
A: 17.9% ± 3.63%

Q: And the “maximal response / emission ratio change” value ([3]; n=7)?
A: 17.9%±3.6%
